Measurements taken from the supplement of paper PMC10307832.

How the values were obtained:
Assay in all cases: relative viability (nuclei count vs DMSO), 5 days (fraction); higher = more cells survive
[1] = compound: CC(C)(C)c1cc(NC(=O)Nc2ccc(-c3cn4c(n3)sc3cc(OCCN5CCOCC5)ccc34)cc2)no1 [Quizartinib] + CC(=O)Nc1cccc(-n2c(=O)n(C3CC3)c(=O)c3c(Nc4ccc(I)cc4F)n(C)c(=O)c(C)c32)c1 [Trametinib] (partner 0.02 µM)
Procedure, shortened: (§1)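 Relative viability is defined as nuclei in treated wells over nuclei in vehicle wells. Duplicate plates were run and medians reported. Lung cancer cell lines in 1536-well plates were dosed by pin tool one day after seeding, with one drug or with a fixed anchor-drug dose plus five library-drug doses (not always all listed) in √10 steps, and nuclei were counted after 5 days.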

[2] = compound: CC(C)(C)c1cc(NC(=O)Nc2ccc(-c3cn4c(n3)sc3cc(OCCN5CCOCC5)ccc34)cc2)no1 [Quizartinib] + CCNC(=O)c1noc(-c2cc(C(C)C)c(O)cc2O)c1-c1ccc(CN2CCOCC2)cc1 [Luminespib] (partner 0.01 µM)
Procedure, shortened: as §1

[3] = compound: COCC[n+]1c2c(n(Cc3cnccn3)c1C)C(=O)c1ccccc1C2=O [YM155] + CS(=O)(=O)N1CCN(Cc2cc3nc(-c4cccc5[nH]ncc45)nc(N4CCOCC4)c3s2)CC1 [Pictilisib] (partner 1 µM)
Procedure, shortened: as §1

[4] = compound: COCC[n+]1c2c(n(Cc3cnccn3)c1C)C(=O)c1ccccc1C2=O [YM155] + O=C(c1cc(Cc2n[nH]c(=O)c3ccccc23)ccc1F)N1CCN(C(=O)C2CC2)CC1 [Olaparib] (partner 8 µM)
Procedure, shortened: as §1

Cell Line | relative viability ([1]; first compound 0.003162 µM) | relative viability ([1]; first compound 0.01 µM) | relative viability ([1]; first compound 0.03162 µM) | relative viability ([1]; first compound 0.1 µM) | relative viability ([2]; first compound 0.001 µM) | relative viability ([2]; first compound 0.003162 µM) | relative viability ([2]; first compound 0.01 µM) | relative viability ([2]; first compound 0.03162 µM) | relative viability ([2]; first compound 0.1 µM) | relative viability ([3]; first compound 0.002 µM) | relative viability ([3]; first compound 0.006325 µM) | relative viability ([3]; first compound 0.02 µM) | relative viability ([3]; first compound 0.06325 µM) | relative viability ([4]; first compound 0.002 µM) | relative viability ([4]; first compound 0.006325 µM) | relative viability ([4]; first compound 0.02 µM) | relative viability ([4]; first compound 0.06325 µM) | relative viability ([1]; first compound 0.001 µM)
NCI-H520 | 0.465 | 0.673 | 0.637 | 0.486 | 0.232 | 0.201 | 0.207 | 0.333 | 0.255 | 0.236 | 0.298 | 0.255 | 0.293 | 0.362 | 0.441 | 0.379 | 0.294 | 
NCI-H1355 | 0.43 | 0.444 | 0.423 | 0.357 | 0.814 | 0.689 | 0.721 | 0.68 | 0.725 | 0.403 | 0.484 | 0.462 | 0.514 | 0.751 | 0.731 | 0.8 | 0.725 | 0.411
NCI-H1915 | 0.31 | 0.331 | 0.29 | 0.313 | 0.786 | 0.714 | 0.828 | 0.829 | 0.815 | 0.904 | 0.834 | 0.88 | 0.667 | 0.26 | 0.259 | 0.278 | 0.254 | 0.28
HARA | 0.715 | 0.626 | 0.555 | 0.459 |  | 0.684 | 0.933 | 0.526 | 0.566 | 0.371 | 0.397 | 0.533 | 0.461 |  | 0.815 | 0.76 | 0.935 | 0.508
NCI-H358 | 0.146 | 0.11 |  | 0.129 | 0.224 | 0.359 | 0.309 | 0.475 | 0.228 | 0.254 | 0.349 | 0.332 | 0.249 | 0.574 | 0.625 | 0.529 | 0.156 | 0.146
PC-3 [JPC-3] | 0.754 | 0.705 | 0.663 | 0.643 | 0.556 | 0.676 | 0.808 | 0.733 | 0.724 | 0.651 | 0.792 | 0.801 | 0.759 | 1.12 | 1.19 | 1.1 | 0.796 | 0.672
LXF-289 | 0.692 | 0.709 | 0.702 | 0.622 | 0.63 | 0.666 | 0.778 | 0.699 | 0.794 | 0.772 | 0.771 | 0.752 | 0.549 | 0.984 | 1.04 | 1.04 | 0.947 | 0.613
NCI-H2170 | 0.907 | 0.92 | 1.01 | 0.947 | 0.65 | 0.741 | 0.838 | 0.769 | 0.737 | 0.296 | 0.357 | 0.349 | 0.329 | 0.605 | 0.583 | 0.668 | 0.62 | 0.868
NCI-H2126 | 0.552 | 0.604 | 0.53 | 0.492 | 0.844 | 0.828 | 0.798 |  | 1.11 | 0.427 | 0.525 | 0.466 | 0.54 | 0.884 | 0.921 | 0.935 | 0.946 | 0.575
NCI-H1755 | 0.851 | 0.856 | 0.784 | 0.755 | 0.473 | 0.243 | 0.555 | 0.459 | 0.39 | 0.396 | 0.437 | 0.428 | 0.513 | 0.848 | 0.853 | 0.855 | 0.913 | 0.744
HCC-827 | 0.531 |  | 0.509 | 0.572 | 0.647 | 0.487 | 0.606 | 0.401 | 0.738 | 1 | 0.763 | 1 | 1.09 | 0.708 | 0.649 | 0.654 | 0.702 | 0.535
NCI-H838 | 0.515 | 0.466 | 0.514 | 0.367 | 0.203 | 0.207 | 0.329 | 0.281 | 0.234 | 0.386 | 0.521 | 0.536 | 0.299 | 0.711 | 0.787 | 0.761 | 0.416 | 0.516
NCI-H3122 | 0.276 | 0.286 | 0.275 | 0.219 | 0.0909 | 0.0886 | 0.079 | 0.106 | 0.112 | 0.601 | 0.615 | 0.606 | 0.506 | 0.623 | 0.74 | 0.679 | 0.627 | 0.21
NCI-H322M | 0.536 | 0.617 | 0.504 | 0.536 | 0.81 | 0.92 | 0.944 | 0.448 | 0.895 | 0.49 | 0.553 | 0.559 | 0.556 | 0.719 | 0.815 | 0.706 | 0.734 | 0.482
NCI-H1975 | 0.381 | 0.287 | 0.435 | 0.322 | 0.166 | 0.273 | 0.164 | 0.212 | 0.202 | 0.273 | 0.268 | 0.256 | 0.224 | 0.717 | 0.756 | 0.767 | 0.189 | 0.285
NCI-H2023 | 0.504 | 0.533 |  | 0.615 | 0.73 | 0.664 | 0.759 |  | 0.624 | 0.237 | 0.23 | 0.25 | 0.112 | 0.558 | 0.468 | 0.379 | 0.325 | 0.643
COR-L 105 | 0.445 | 0.507 |  | 0.516 | 0.579 | 0.765 | 0.738 | 0.693 | 0.59 | 0.332 | 0.493 | 0.447 | 0.404 | 0.584 | 0.715 | 0.72 | 0.538 | 0.449
NCI-H23 | 0.346 | 0.456 | 0.43 | 0.312 | 0.209 | 0.245 | 0.219 |  | 0.185 | 0.518 | 0.459 | 0.484 | 0.222 |  | 0.323 | 0.294 | 0.235 | 0.353
